Data as given in patent US20230036854A1, “HETEROCYCLIC SPIRO-COMPOUNDS AS AM2 RECEPTOR INHIBITORS” (THE UNIVERSITY OF SHEFFIELD, priority 2018, published 2023).

These compounds were tested against T1, AM2 receptor (1321N1 cells transfected with CALCRL+RAMP3) (Homo sapiens, UniProt O60896+Q16602) (assay: AM2 receptor inhibition, LANCE cAMP agonist-antagonist competition assay). Conditions: inhibition of AM induced cAMP activation, read-out: AM2 D2 protocol: pIC50 (converted).
T1 construct: host or cells: 1321N1 cells
Type: cell-based
Outline: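 cAMP was quantified by LANCE TR-FRET after an EC50 challenge with adrenomedullin (15 min, room temperature) in CALCRL+RAMP3-transfected 1321N1 cells (2500/well) that had first been exposed to compound for 30 min. Buffer was pH 7.4 HBSS with HEPES and BSA. Forskolin defined 100% stimulation and vehicle 0%.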

T1 sequence (Q16602 23-461): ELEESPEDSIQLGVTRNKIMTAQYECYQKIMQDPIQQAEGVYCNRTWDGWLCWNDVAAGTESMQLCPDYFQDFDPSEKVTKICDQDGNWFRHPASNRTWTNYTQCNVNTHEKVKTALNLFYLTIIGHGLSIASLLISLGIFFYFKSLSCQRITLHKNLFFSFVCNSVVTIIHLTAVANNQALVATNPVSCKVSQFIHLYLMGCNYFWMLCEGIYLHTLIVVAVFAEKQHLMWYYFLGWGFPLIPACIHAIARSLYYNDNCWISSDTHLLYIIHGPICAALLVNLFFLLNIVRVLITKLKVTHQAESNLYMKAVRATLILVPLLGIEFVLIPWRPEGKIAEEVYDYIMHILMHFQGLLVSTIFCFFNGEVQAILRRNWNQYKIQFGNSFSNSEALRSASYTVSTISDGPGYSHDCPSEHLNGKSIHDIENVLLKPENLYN
T1 sequence (O60896 24-148): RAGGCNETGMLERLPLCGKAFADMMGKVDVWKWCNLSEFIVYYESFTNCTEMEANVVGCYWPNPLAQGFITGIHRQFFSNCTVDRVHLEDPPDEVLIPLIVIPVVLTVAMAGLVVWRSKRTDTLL

Compound | IC50
CCC1(C(=O)N(CC(=O)Nc2ccc3c(c2)C[C@@]2(C3)C(=O)Nc3ncccc32)Cc2ccccc2CNC)CCN(C(=O)C2CCCC2)CC1 [Example 75, (R)-1-(Cyclopentanecarbonyl)-4-ethyl-N-(2-((methylamino)methyl)benzyl)-N-(2-oxo-2-((2′-oxo-1,1′,2′,3-tetrahydrospiro[indene-2,3′-pyrrolo[2,3-b]pyridin]-5-yl)amino)ethyl)piperidine-4-carboxamide] | 5.75 nM
CCC1(C(=O)N(CC(=O)Nc2ccc3c(c2)C[C@@]2(C3)C(=O)Nc3ncccc32)Cc2ccccc2CNC)CCN(C(=O)c2ccc(F)cn2)CC1 [Example 76, (R)-4-Ethyl-1-(5-fluoropicolinoyl)-N-(2-((methylamino)methyl)benzyl)-N-(2-oxo-2-((2′-oxo-1,1′,2′,3-tetrahydrospiro[indene-2,3′-pyrrolo[2,3-b]pyridin]-5-yl)amino)ethyl)piperidine-4-carboxamide] | 37.2 nM
CCC1(C(=O)N(CC(=O)Nc2ccc3c(c2)C[C@@]2(C3)C(=O)Nc3ncccc32)Cc2ccccc2CNC)CCN(C(=O)[C@@H](C)NC)CC1 [Example 77, 4-Ethyl-N-(2-((methylamino)methyl)benzyl)-1-((R)-2-(methylamino)propanoyl)-N-(2-oxo-2-(((R)-2′-oxo-1,1′,2′,3-tetrahydrospiro[indene-2,3′-pyrrolo[2,3-b]pyridin]-5-yl)amino)ethyl)piperidine-4-carboxamide] | 24 nM
CCC1(C(=O)N(CC(=O)Nc2ccc3c(c2)C[C@@]2(C3)C(=O)Nc3ncccc32)Cc2ccccc2CNC)CCN(C(=O)c2cccc(C(F)(F)F)n2)CC1 [Example 78, (R)-4-Ethyl-N-(2-((methylamino)methyl)benzyl)-N-(2-oxo-2-((2′-oxo-1,1′,2′,3-tetrahydrospiro[indene-2,3′-pyrrolo[2,3-b]pyridin]-5-yl)amino)ethyl)-1-(6-(trifluoromethyl)picolinoyl)piperidine-4-carboxamide] | 112 nM
CCC1(C(=O)N(CC(=O)Nc2ccc3c(c2)C[C@@]2(C3)C(=O)Nc3ncccc32)Cc2ccccc2CNC)CCN(C(=O)[C@@H](N)c2ccccc2)CC1 [Example 79, 1-((S)-2-Amino-2-phenylacetyl)-4-ethyl-N-(2-((methylamino)methyl)benzyl)-N-(2-oxo-2-(((R)-2′-oxo-1,1′,2′,3-tetrahydrospiro[indene-2,3′-pyrrolo[2,3-b]pyridin]-5-yl)amino)ethyl)piperidine-4-carboxamide] | 7.41 nM
CCC1(C(=O)N(CC(=O)Nc2ccc3c(c2)C[C@@]2(C3)C(=O)Nc3ncccc32)Cc2ccccc2CNC)CCN(C(=O)[C@H](N)C(C)C)CC1 [Example 80, 1-((R)-2-Amino-3-methylbutanoyl)-4-ethyl-N-(2-((methylamino)methyl)benzyl)-N-(2-oxo-2-(((R)-2′-oxo-1,1′,2′,3-tetrahydrospiro[indene-2,3′-pyrrolo[2,3-b]pyridin]-5-yl)amino)ethyl)piperidine-4-carboxamide] | 57.5 nM
CCC1(C(=O)N(CC(=O)Nc2ccc3c(c2)C[C@@]2(C3)C(=O)Nc3ncccc32)Cc2ccccc2CNC)CCN(C(=O)[C@H](N)c2ccccc2)CC1 [Example 81, 1-((R)-2-Amino-2-phenylacetyl)-4-ethyl-N-(2-((methylamino)methyl)benzyl)-N-(2-oxo-2-(((R)-2′-oxo-1,1′,2′,3-tetrahydrospiro[indene-2,3′-pyrrolo[2,3-b]pyridin]-5-yl)amino)ethyl)piperidine-4-carboxamide] | 2.34 nM
CCC1(C(=O)N(CC(=O)Nc2ccc3c(c2)C[C@@]2(C3)C(=O)Nc3ncccc32)Cc2ccccc2CNC)CCN(C(=O)[C@@H](N)C(C)C)CC1 [Example 82, 1-((S)-2-Amino-3-methylbutanoyl)-4-ethyl-N-(2-((methylamino)methyl)benzyl)-N-(2-oxo-2-(((R)-2′-oxo-1,1′,2′,3-tetrahydrospiro[indene-2,3′-pyrrolo[2,3-b]pyridin]-5-yl)amino)ethyl)piperidine-4-carboxamide] | 8.32 nM
CCC1(C(=O)N(CC(=O)Nc2ccc3c(c2)C[C@@]2(C3)C(=O)Nc3ncccc32)Cc2ccccc2CNC)CCN(C(=O)[C@H]2COCCN2)CC1 [Example 83, 4-Ethyl-N-(2-((methylamino)methyl)benzyl)-1-((R)-morpholine-3-carbonyl)-N-(2-oxo-2-(((R)-2′-oxo-1,1′,2′,3-tetrahydrospiro[indene-2,3′-pyrrolo[2,3-b]pyridin]-5-yl)amino)ethyl)piperidine-4-carboxamide] | 56.2 nM
CCC1(C(=O)N(CC(=O)Nc2ccc3c(c2)C[C@@]2(C3)C(=O)Nc3ncccc32)Cc2ccccc2CNC)CCN(C(=O)c2ccn[nH]2)CC1 [Example 84, (R)-4-Ethyl-N-(2-((methylamino)methyl)benzyl)-N-(2-oxo-2-((2′-oxo-1,1′,2′,3-tetrahydrospiro[indene-2,3′-pyrrolo[2,3-b]pyridin]-5-yl)amino)ethyl)-1-(1H-pyrazole-5-carbonyl)piperidine-4-carboxamide] | 3.55 nM
CCC1(C(=O)N(CC(=O)Nc2ccc3c(c2)C[C@@]2(C3)C(=O)Nc3ncccc32)Cc2ccccc2CNC)CCN(C(=O)c2cn[nH]c2)CC1 [Example 85, (R)-4-Ethyl-N-(2-((methylamino)methyl)benzyl)-N-(2-oxo-2-((2′-oxo-1,1′,2′,3-tetrahydrospiro[indene-2,3′-pyrrolo[2,3-b]pyridin]-5-yl)amino)ethyl)-1-(1H-pyrazole-4-carbonyl)piperidine-4-carboxamide] | 3.8 nM
CCC1(C(=O)N(CC(=O)Nc2ccc3c(c2)C[C@@]2(C3)C(=O)Nc3ncccc32)Cc2ccccc2CNC)CCN(C(=O)c2cncs2)CC1 [Example 86, (R)-4-Ethyl-N-(2-((methylamino)methyl)benzyl)-N-(2-oxo-2-((2′-oxo-1,1′,2′,3-tetrahydrospiro[indene-2,3′-pyrrolo[2,3-b]pyridin]-5-yl)amino)ethyl)-1-(thiazole-5-carbonyl)piperidine-4-carboxamide] | 1.26 nM
CCC1(C(=O)N(CC(=O)Nc2ccc3c(c2)C[C@@]2(C3)C(=O)Nc3ncccc32)Cc2ccccc2CNC)CCN(C(=O)C23CC(C2)C3)CC1 [Example 87] | 2.19 nM
CCC1(C(=O)N(CC(=O)Nc2ccc3c(c2)C[C@@]2(C3)C(=O)Nc3ncccc32)Cc2ccccc2CNC)CCN(C(=O)C(C)(C)F)CC1 [Example 88, (R)-4-Ethyl-1-(2-fluoro-2-methylpropanoyl)-N-(2-((methylamino)methyl)benzyl)-N-(2-oxo-2-((2′-oxo-1,1′,2′,3-tetrahydrospiro[indene-2,3′-pyrrolo[2,3-b]pyridin]-5-yl)amino)ethyl)piperidine-4-carboxamide] | 2.45 nM
CCC1(C(=O)N(CC(=O)Nc2ccc3c(c2)C[C@@]2(C3)C(=O)Nc3ncccc32)Cc2ccccc2CNC)CCN(C(=O)C2CCC2)CC1 [Example 89, (R)-1-(Cyclobutanecarbonyl)-4-ethyl-N-(2-((methylamino)methyl)benzyl)-N-(2-oxo-2-((2′-oxo-1,1′,2′,3-tetrahydrospiro[indene-2,3′-pyrrolo[2,3-b]pyridin]-5-yl)amino)ethyl)piperidine-4-carboxamide] | 5.5 nM
CCC1(C(=O)N(CC(=O)Nc2ccc3c(c2)C[C@@]2(C3)C(=O)Nc3ncccc32)Cc2ccccc2CNC)CCN(C(=O)CN2CCOCC2)CC1 [Example 90, (R)-4-Ethyl-N-(2-((methylamino)methyl)benzyl)-1-(2-morpholinoacetyl)-N-(2-oxo-2-((2′-oxo-1,1′,2′,3-tetrahydrospiro[indene-2,3′-pyrrolo[2,3-b]pyridin]-5-yl)amino)ethyl)piperidine-4-carboxamide] | 22.9 nM
CCC1(C(=O)N(CC(=O)Nc2ccc3c(c2)C[C@@]2(C3)C(=O)Nc3ncccc32)Cc2ccccc2CNC)CCN(C(=O)c2cc(C(C)(C)C)n[nH]2)CC1 [Example 91, (R)-1-(3-(tert-Butyl)-1H-pyrazole-5-carbonyl)-4-ethyl-N-(2-((methylamino)methyl)benzyl)-N-(2-oxo-2-((2′-oxo-1,1′,2′,3-tetrahydrospiro[indene-2,3′-pyrrolo[2,3-b]pyridin]-5-yl)amino)ethyl)piperidine-4-carboxamide] | 34.7 nM
CCC1(C(=O)N(CC(=O)Nc2ccc3c(c2)C[C@@]2(C3)C(=O)Nc3ncccc32)Cc2ccccc2CNC)CCN(C(=O)c2cc(C(C)(C)C)nn2C)CC1 [Example 92, (R)-1-(3-(tert-Butyl)-1-methyl-1H-pyrazole-5-carbonyl)-4-ethyl-N-(2-((methylamino)methyl)benzyl)-N-(2-oxo-2-((2′-oxo-1,1′,2′,3-tetrahydrospiro[indene-2,3′-pyrrolo[2,3-b]pyridin]-5-yl)amino)ethyl)piperidine-4-carboxamide] | 13.2 nM
CCC1(C(=O)N(CC(=O)Nc2ccc3c(c2)C[C@@]2(C3)C(=O)Nc3ncccc32)Cc2ccccc2CNC)CCN(C(=O)[C@@H]2COCCN2)CC1 [Example 93, 4-Ethyl-N-(2-((methylamino)methyl)benzyl)-1-((S)-morpholine-3-carbonyl)-N-(2-oxo-2-(((R)-2′-oxo-1,1′,2′,3-tetrahydrospiro[indene-2,3′-pyrrolo[2,3-b]pyridin]-5-yl)amino)ethyl)piperidine-4-carboxamide] | 18.6 nM
CCC1(C(=O)N(CC(=O)Nc2ccc3c(c2)C[C@@]2(C3)C(=O)Nc3ncccc32)Cc2ccccc2CNC)CCN(C(=O)[C@H](C)NC)CC1 [Example 94, 4-Ethyl-N-(2-((methylamino)methyl)benzyl)-1-((S)-2-(methylamino)propanoyl)-N-(2-oxo-2-(((R)-2′-oxo-1,1′,2′,3-tetrahydrospiro[indene-2,3′-pyrrolo[2,3-b]pyridin]-5-yl)amino)ethyl)piperidine-4-carboxamide] | 15.1 nM
